# US6399661B1, “Oral creatine supplement and method for making same” (priority 2000, dated 2002)
# Columns and labels:
# [1] = acidic solutions having a pH range of from 3-6; cited from earlier work
# [2] = conversion of creatine to creatinine in solutions of different pH; type: physicochemical
# Description: FIG. 1 is a graph showing rate of creatinine formation from creatine as a function of pH;
# FIG. 2 is a graph showing rate of creatine loss as a function of time upon dissolution in different pH buffers; and
# FIG. 3 is a chart showing time in minutes for conversion of 1 g creatine to creatinine in 2 liter at given pH.
# The rate of creatinine formation from creatine as a function of pH is shown in FIG. 1 in accordance with research conducted by the inventor. In FIG. 2, the rate of creatine loss as a function of time upon dissolution in different pH buffers is shown.
# [3] = test system: human body; conditions: 5 grams of creatine, 4-6 times a day, for two or more days, oral; cited from earlier work
compound,measurement,setting,value
CN(CC(=O)O)C(=N)N [creatine],rate of conversion of creatine to creatinine,[1],almost instantaneous
same,creatine remaining following dissolution in a pH buffer,"[2]; different pH buffers, as a function of time (FIG. 2)","the higher the pH, the higher the creatine remaining"
same,rate of conversion of one gram of creatine to creatinine,"[2]; various pH solutions, 1 g creatine in 2 liter (FIG. 3)",substantially slowed by increasing the pH of the solution
same,total creatine concentration,[3],significant increase
